# Reference: patent publication US20250280829A1, “USE OF (5S)-3-[3-(3-CHLORO-2-FLUOROPHENOXY)-6-METHYLPYRIDAZIN-4-YL]-5-(2-CHLORO-4-METHYLBENZYL)-5,6-DIHYDRO-4H-1,2,4-OXADIAZINE FOR CONTROLLING UNWANTED MICROORGANISMS” (Bayer Aktiengesellschaft, priority 2022, published 2025)
# Assays:
# Alternaria alternata = Alternaria alternata in vitro cell test; assay type: cell-based; conditions: 120 h, 20 ppm of active ingredient, liquid culture, 5 days incubation, read-out: efficacy (inhibition of fungal growth)
# Protocol: (§1) a-7. Alternaria alternata In Vitro Cell Test [table] Fungicides were solubilized in DMSO and the solution used to prepare the required range of concentrations. The final concentration of DMSO used in the assay was ≤1%. A spore suspension of A. alternata was prepared and diluted to the desired spore density. Fungicides were evaluated for their ability to inhibit spore germination and mycelium growth in liquid culture assay. The compounds were added in the desired concentration to the culture medium with spores. After 5 days incubation, fungi-toxicity of compounds was determined by spectrometric measurement of mycelium growth. Inhibition of fungal growth was determined by comparing the absorbance values in wells containing the fungicides with the absorbance in control wells without fungicides.
# Alternaria brassicae = assay: In vivo preventive test on Alternaria brassicae (leaf spot on radish or cabbage); conditions: 500 ppm of active ingredient; preventive spray on radish or cabbage; evaluated 3 to 4 days after inoculation
# Protocol: (§2) a-1. In Vivo Preventive Test on Alternaria brassicae (Leaf Spot on Radish or Cabbage) [table] The active ingredients were made soluble and homogenized in a mixture of Dimethyl sulfoxide/Acetone//Tween® 80 and then diluted in water to the desired concentration. The young plants of radish or cabbage were treated by spraying the active ingredient prepared as described above. Control plants were treated only with an aqueous solution of Acetone/Dimethyl sulfoxide/Tween® 80. After 24 hours, the plants were contaminated by spraying the leaves with an aqueous suspension of Alternaria brassicae spores. The contaminated radish or cabbage plants were incubated for 3 to 4 days at 20° C. and at 100% relative humidity.
# Fusarium graminearum = assay type: in vivo; conditions: 500 ppm of active ingredient; preventive spray on wheat; evaluated 5 days after inoculation
# Fusarium culmorum = Fusarium culmorum in vitro cell test; assay type: cell-based; conditions: 96 h, 20 ppm of active ingredient, liquid culture, 4 days incubation, read-out: efficacy (inhibition of fungal growth)
# Protocol: a-8. Fusarium culmorum In Vitro Cell Test
# Fungicides were solubilized in DMSO and the solution used to prepare the required range of concentrations. The final concentration of DMSO used in the assay was ≤1%.
# A spore suspension of F. culmorum was prepared and diluted to the desired spore density.
# Fungicides were evaluated for their ability to inhibit spore germination and mycelium growth in liquid culture assay. The compounds were added in the desired concentration to the culture medium with spores. After 4 days incubation, fungi-toxicity of compounds was determined by spectrometric measurement of mycelium growth. Inhibition of fungal growth was determined by comparing the absorbance values in wells containing the fungicides with the absorbance in control wells without fungicides.
# Sphaerotheca fuliginea = assay: In vivo preventive test on Sphaerotheca fuliginea (powdery mildew on cucurbits); conditions: 500 ppm of active ingredient; preventive spray on gherkin; evaluated 8 days after inoculation
# Protocol: (§3) a-5. In Vivo Preventive Test on Sphaerotheca fuliginea (Powdery Mildew on Cucurbits) [table] The active ingredients were made soluble and homogenized in a mixture of Dimethyl sulfoxide/Acetone//Tween® 80 and then diluted in water to the desired concentration. The young plants of gherkin were treated by spraying the active ingredient prepared as described above. Control plants were treated only with an aqueous solution of Acetone/Dimethyl sulfoxide/Tween® 80. After 24 hours, the plants were contaminated by spraying the leaves with an aqueous suspension of Sphaerotheca fuliginea spores.
# [1] = system: Colletotrichum lindemuthianum; assay: In vivo preventive test on Colletotrichum lindemuthianum (leaf spot on bean); conditions: 500 ppm of active ingredient; preventive spray on bean; evaluated 7 days after inoculation
# Protocol: as §2, with “a-6.” for “a-1.”, “Colletotrichum lindemuthianum” for “Alternaria brassicae”, “Bean)” for “Radish or Cabbage)”, “bean” for “radish or cabbage”, “24 hours” for “3 to 4 days”, “relative humidity and then for 6 days at 20° C. and at 90% relative” for “relative”
# Ustilago avenae = Ustilago avenae in vitro cell test; assay type: cell-based; conditions: 96 h, 20 ppm of active ingredient, liquid culture, 4 days of incubation, read-out: efficacy (inhibition of fungal growth)
# Protocol: a-10. Ustilago avenae In Vitro Cell Test [table] Fungicides were solubilized in DMSO and the solution used to prepare the required range of concentrations. The final concentration of DMSO used in the assay was ≤1%. Inoculum was prepared from a pre-culture of U. avenae grown in liquid medium and diluted to the desired optical density (OD). Fungicides were evaluated for their ability to inhibit mycelium growth in liquid culture assay. The compounds were added in the desired concentrations to culture medium containing the spore suspension. After 4 days of incubation, the fungicidal efficacy of compounds was determined by spectrometric measurement of mycelium growth. Inhibition of fungal growth was determined by comparing the absorbance values in wells containing the fungicides with the absorbance in control wells without fungicides.
# Septoria tritici [2] = assay: Septoria tritici in vitro cell test; assay type: cell-based; conditions: Zymoseptoria tritici, 168 h; 20 ppm of active ingredient; liquid culture; 7 days incubation; read-out: efficacy (inhibition of fungal growth)
# Protocol: as §1, with “a-15. Septoria tritici” for “a-7. Alternaria alternata”, “S. tritici” for “A. alternata”, “After 5 days incubation, fungi-toxicity of compounds was determined by spectrometric measurement of mycelium growth.” left out
# Septoria tritici [3] = assay: In vivo preventive test on Septoria tritici (leaf spot on wheat); conditions: 500 ppm of active ingredient; preventive spray on wheat; evaluated 17 to 19 days after inoculation
# Protocol: a-4. In Vivo Preventive Test on Septoria tritici (Leaf Spot on Wheat) [table] The active ingredients were made soluble and homogenized in a mixture of Dimethyl sulfoxide/Acetone//Tween® 80 and then diluted in water to the desired concentration. The young plants of wheat were treated by spraying the active ingredient prepared as described above. Control plants were treated only with an aqueous solution of Acetone/Dimethyl sulfoxide/Tween® 80. After 24 hours, the plants were contaminated by spraying the leaves with an aqueous suspension of Septoria tritici spores. The contaminated wheat plants were incubated for 72 hours at 17° C. and at 100% relative humidity and then for 14 to 16 days at 20° C. and at 90% relative humidity.
# Pyrenophora teres [4] = assay: Pyrenophora teres in vitro cell test; assay type: cell-based; conditions: 144 h, 20 ppm of active ingredient, liquid culture, 6 days incubation, read-out: efficacy (inhibition of fungal growth)
# Protocol: as §1, with “a-12. Pyrenophora teres” for “a-7. Alternaria alternata”, “P. teres” for “A. alternata”, “6” for “5”
# Botrytis cinerea [5] = assay: In vivo preventive test on Botrytis cinerea (grey mould); conditions: 500 ppm of active ingredient; preventive spray on gherkin or cabbage; evaluated 4 to 5 days after inoculation
# Protocol: a-2. In Vivo Preventive Test on Botrytis cinerea (Grey Mould) [table] The active ingredients were made soluble and homogenized in a mixture of Dimethyl sulfoxide/Acetone//Tween® 80 and then diluted in water to the desired concentration. The young plants of gherkin or cabbage were treated by spraying the active ingredient prepared as described above. Control plants were treated only with an aqueous solution of Acetone/Dimethyl sulfoxide/Tween® 80. After 24 hours, the plants were contaminated by spraying the leaves with an aqueous suspension of Botrytis cinerea spores. The contaminated gherkin plants were incubated for 4 to 5 days at 17° C. and at 90% relative humidity. The contaminated cabbage plants were incubated for 4 to 5 days at 20° C. and at 100% relative humidity.
# Fusarium virguliforme = Fusarium virguliforme in vitro cell test; assay type: cell-based; conditions: 144 h, 20 ppm of active ingredient, liquid culture, 6 days incubation, read-out: efficacy (inhibition of fungal growth)
# Protocol: as §1, with “a-13. Fusarium virguliforme” for “a-7. Alternaria alternata”, “F. virguliforme” for “A. alternata”, “6” for “5”
# Pyricularia Oryzae = assay: microbe, parasite or virus in culture; assay type: cell-based; conditions: 120 h, read-out: efficacy (inhibition of fungal growth)
# Botrytis cinerea [6] = assay: Botrytis cinerea in vitro cell test; assay type: cell-based; conditions: 144 h, 20 ppm of active ingredient, liquid culture, 6 days incubation, read-out: efficacy (inhibition of fungal growth)
# Protocol: as §1, with “a-14. Botrytis cinerea” for “a-7. Alternaria alternata”, “B. cinerea” for “A. alternata”, “6” for “5”
# [7] = system: Colletotrichum lindemuthianum; assay: Colletotrichum lindemuthianum in vitro cell test; assay type: cell-based; conditions: 144 h, 20 ppm of active ingredient, liquid culture, 6 days incubation, read-out: efficacy (inhibition of fungal growth)
# Protocol: as §1, with “a-11. Colletotrichum lindemuthianum In” for “a-7. Alternaria alternata In”, “of C. lindemuthianum” for “of A. alternata”, “inhibit spores” for “inhibit spore”, “After 6” for “After 5”
# Pyrenophora teres [8] = assay: In vivo preventive test on Pyrenophora teres (net blotch on barley); conditions: 500 ppm of active ingredient; preventive spray on barley; evaluated 10 days after inoculation
# Protocol: as §3, with “a-3.” for “a-5.”, “Pyrenophora teres (Net Blotch” for “Sphaerotheca fuliginea (Powdery Mildew”, “Barley)” for “Cucurbits)”, “barley” for “gherkin”, “Pyrenophora teres” for “Sphaerotheca fuliginea”
compound,measurement,setting,value
"Cc1ccc(C[C@H]2CON=C(c3cc(C)nnc3Oc3cccc(Cl)c3F)N2)c(Cl)c1 [compound (I), (5S)-3-[3-(3-chloro-2-fluorophenoxy)-6-methylpyridazin-4-yl]-5-(2-chloro-4-methylbenzyl)-5,6-dihydro-4H-1,2,4-oxadiazine]",inhibition at 20 ppm,Alternaria alternata,≥ 70%
same,efficacy,Alternaria brassicae,at least 70%
same,efficacy,Fusarium graminearum,at least 70%
same,inhibition at 20 ppm,Fusarium culmorum,≥ 70%
same,efficacy,Sphaerotheca fuliginea,at least 70%
same,efficacy,[1],at least 70%
same,inhibition at 20 ppm,Ustilago avenae,≥ 70%
same,inhibition at 20 ppm,Septoria tritici [2],≥ 70%
same,efficacy,Septoria tritici [3],at least 70%
same,inhibition at 20 ppm,Pyrenophora teres [4],≥ 70%
same,efficacy,Botrytis cinerea [5],at least 70%
same,inhibition at 20 ppm,Fusarium virguliforme,≥ 70%
same,inhibition at 20 ppm,Pyricularia Oryzae,≥ 70%
same,inhibition at 20 ppm,Botrytis cinerea [6],≥ 70%
same,inhibition at 20 ppm,[7],≥ 70%
same,efficacy,Pyrenophora teres [8],at least 70%
